Data reported in ChEMBL document CHEMBL5385871, “Application and synthesis of thiazole ring in clinically approved drugs” (Eur J Med Chem, 2023).
Converted amounts (≈) assume the structure as drawn. Structures can show the parent of a compound that is named as a salt.

Key:
in vivo [1] = details: Sprague-Dawley, rat, iv, 10 mg/kg
Description: Half life in fasted Sprague-Dawley rat at 10 mg/kg, iv measured for 10 hrs by LC/MS/MS analysis

WiDr = test: cells; details: Homo sapiens, 72 h
Description: Antiproliferative activity against human WiDr cells incubated for 72 hrs by MTT assay

K562 = test: cells; details: Homo sapiens, K562, 72 h
Description: Antiproliferative activity against human K562 cells incubated for 72 hrs by MTT assay

[2] = Oral bioavailability in fasted Sprague-Dawley rat at 10 mg/kg administered via gavage measured for 10 hrs by LC/MS/MS analysis; type: ADME, organism-based; details: in vivo
in vivo [3] = details: Sprague-Dawley, rat, po, 10 mg/kg
Description: Half life in fasted Sprague-Dawley rat at 10 mg/kg, po administered via gavage measured for 10 hrs by LC/MS/MS analysis

Clostridioides difficile = test: Antibacterial activity against Clostridium difficile assessed as bacterial growth inhibition; type: functional
Staphylococcus aureus = test: Antibacterial activity against Staphylococcus aureus assessed as bacterial growth inhibition; type: functional
Bacteroides fragilis = test: Antibacterial activity against Bacteroides fragilis assessed as bacterial growth inhibition; type: functional
[4] = Inhibition of PI3Kalpha H1047R mutant (unknown origin); parameters: species or system Homo sapiens
[5] = Induction of colony formation of human megakaryocyte from human cord blood CD34-positive cells measured after 10 to 12 days; type: functional, cell-based
BaF3 = test: Induction of cell proliferation of mouse BaF3 cells expressing full-length human TPO receptor by WST-1/1-methoxy PMS assay; type: functional, cell-based
Haemophilus influenzae = test: Antibacterial activity against Haemophilus influenzae assessed as bacterial growth inhibition; type: functional
Moraxella catarrhalis = test: Antibacterial activity against Moraxella catarrhalis assessed as bacterial growth inhibition; type: functional
Streptococcus pneumoniae = test: Antibacterial activity against Streptococcus pneumoniae assessed as bacterial growth inhibition; type: functional
[6] = Inhibition of P-gp-mediated extrusion of [14C]saquinavir in porcine BCEC cells measured after 5 mins by scintillation counting method; type: cell-based, Sus scrofa; details: brain capillary endothelial cell
Escherichia coli = test: Antibacterial activity against Escherichia coli assessed as bacterial growth inhibition; type: functional
Proteus mirabilis = test: Antibacterial activity against Proteus mirabilis assessed as bacterial growth inhibition; type: functional
Neisseria gonorrhoeae = test: Antibacterial activity against Neisseria gonorrhoeae assessed as bacterial growth inhibition; type: functional
Streptococcus pyogenes = test: Antibacterial activity against Streptococcus pyogenes assessed as bacterial growth inhibition; type: functional
D(3) dopamine receptor = D(3) dopamine receptor (Homo sapiens, UniProt P35462)
D(3) dopamine receptor, sequence (P35462 whole entry): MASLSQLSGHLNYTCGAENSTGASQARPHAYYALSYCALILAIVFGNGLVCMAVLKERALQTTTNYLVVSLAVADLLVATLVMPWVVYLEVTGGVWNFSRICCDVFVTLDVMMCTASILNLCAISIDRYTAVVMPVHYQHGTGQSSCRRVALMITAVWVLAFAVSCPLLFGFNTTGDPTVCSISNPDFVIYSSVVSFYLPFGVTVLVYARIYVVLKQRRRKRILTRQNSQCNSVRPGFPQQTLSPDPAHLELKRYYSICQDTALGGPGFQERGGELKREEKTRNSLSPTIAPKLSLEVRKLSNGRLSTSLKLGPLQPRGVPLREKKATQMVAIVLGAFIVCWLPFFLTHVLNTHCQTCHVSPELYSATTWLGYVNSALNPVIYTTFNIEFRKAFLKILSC
Description: Binding affinity to human D3 receptor assessed as inhibition constant

[7] = test system: Staphylococcus epidermidis; test: Antibacterial activity against Staphylococcus epidermidis assessed as bacterial growth inhibition; type: functional
Pseudomonas aeruginosa = test: Antibacterial activity against Pseudomonas aeruginosa assessed as bacterial growth inhibition; type: functional
Enterobacteriaceae = test: Antibacterial activity against Enterobacteriaceae assessed as bacterial growth inhibition; type: functional
[8] = Antibacterial activity against non-fermentative bacteria assessed as bacterial growth inhibition
Bacteria = test: Antibacterial activity against aerobic gram-negative bacteria assessed as bacterial growth inhibition; type: functional
[9] = Inhibition of proliferation in Giardia lamblia trophozoites; type: functional, Giardia duodenalis
[10] = target: T1, Beta-2 adrenergic receptor (Homo sapiens, UniProt P07550); test: Inhibition of beta-2 adrenoceptor (unknown origin)
T1 sequence (P07550 whole entry): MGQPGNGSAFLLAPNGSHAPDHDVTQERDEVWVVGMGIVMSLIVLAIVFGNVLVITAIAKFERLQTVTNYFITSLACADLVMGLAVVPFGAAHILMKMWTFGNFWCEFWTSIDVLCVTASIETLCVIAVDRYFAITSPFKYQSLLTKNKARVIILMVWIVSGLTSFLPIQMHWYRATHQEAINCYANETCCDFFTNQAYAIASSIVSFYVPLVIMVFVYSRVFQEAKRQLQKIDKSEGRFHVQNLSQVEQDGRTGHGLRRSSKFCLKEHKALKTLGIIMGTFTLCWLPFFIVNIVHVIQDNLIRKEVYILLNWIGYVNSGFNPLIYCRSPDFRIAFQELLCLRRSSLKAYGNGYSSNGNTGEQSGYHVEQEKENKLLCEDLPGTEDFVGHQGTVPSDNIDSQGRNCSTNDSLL

[11] = target: T2, Beta-1 adrenergic receptor (Homo sapiens, UniProt P08588); test: Inhibition of beta-1 adrenoceptor (unknown origin)
T2 sequence (P08588 whole entry): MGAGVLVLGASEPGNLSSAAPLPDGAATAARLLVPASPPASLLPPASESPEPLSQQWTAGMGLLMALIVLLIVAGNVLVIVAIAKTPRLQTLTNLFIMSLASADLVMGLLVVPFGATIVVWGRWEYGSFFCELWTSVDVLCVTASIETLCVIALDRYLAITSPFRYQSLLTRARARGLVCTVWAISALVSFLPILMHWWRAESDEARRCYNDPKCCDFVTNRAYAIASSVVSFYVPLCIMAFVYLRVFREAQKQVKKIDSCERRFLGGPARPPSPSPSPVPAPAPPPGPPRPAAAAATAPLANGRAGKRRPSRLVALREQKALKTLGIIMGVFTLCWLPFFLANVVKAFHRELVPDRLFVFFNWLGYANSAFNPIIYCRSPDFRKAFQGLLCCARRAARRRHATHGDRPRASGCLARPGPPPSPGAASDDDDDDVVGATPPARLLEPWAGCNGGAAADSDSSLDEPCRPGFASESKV

Acetylcholinesterase = Acetylcholinesterase (Homo sapiens, UniProt P22303)
Acetylcholinesterase, sequence (P22303 whole entry): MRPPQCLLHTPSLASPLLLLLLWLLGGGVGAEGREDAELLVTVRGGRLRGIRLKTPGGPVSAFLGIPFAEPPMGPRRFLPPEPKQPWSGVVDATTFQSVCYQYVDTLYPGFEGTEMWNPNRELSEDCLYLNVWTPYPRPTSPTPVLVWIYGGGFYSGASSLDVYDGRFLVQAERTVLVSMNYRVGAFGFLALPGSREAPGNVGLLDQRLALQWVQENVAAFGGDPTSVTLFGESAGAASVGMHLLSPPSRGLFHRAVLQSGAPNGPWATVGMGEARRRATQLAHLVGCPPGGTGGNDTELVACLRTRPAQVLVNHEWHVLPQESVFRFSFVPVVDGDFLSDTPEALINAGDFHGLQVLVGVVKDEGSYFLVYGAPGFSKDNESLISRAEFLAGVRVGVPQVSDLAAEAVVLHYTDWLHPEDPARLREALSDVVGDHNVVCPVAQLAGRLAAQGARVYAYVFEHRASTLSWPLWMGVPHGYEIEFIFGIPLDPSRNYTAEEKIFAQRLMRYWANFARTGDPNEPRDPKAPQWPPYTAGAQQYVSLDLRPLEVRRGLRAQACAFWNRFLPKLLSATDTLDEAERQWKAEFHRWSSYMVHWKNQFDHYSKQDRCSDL
Description: Inhibition of AChE (unknown origin)

[12] = Terminal half life in fasted Sprague-Dawley rat at 3 mg/kg, po measured for 24 hrs by LC-MS/MS analysis; type: ADME, organism-based; details: in vivo, read-out: beta t1/2 (converted)
[13] = Terminal half life in fasted cynomolgus monkey at 3 mg/kg, po measured for 24 hrs by LC-MS/MS analysis; type: ADME, organism-based, Macaca fascicularis; details: in vivo, read-out: beta t1/2 (converted)
[14] = target: Beta-3 adrenergic receptor (Homo sapiens, UniProt P13945); test: Agonist activity at human beta-3 adrenoceptor expressed in CHO cells assessed as cAMP accumulation incubated for 10 mins by radioimmunoassay; type: functional, cell-based
Beta-3 adrenergic receptor, sequence (P13945 whole entry): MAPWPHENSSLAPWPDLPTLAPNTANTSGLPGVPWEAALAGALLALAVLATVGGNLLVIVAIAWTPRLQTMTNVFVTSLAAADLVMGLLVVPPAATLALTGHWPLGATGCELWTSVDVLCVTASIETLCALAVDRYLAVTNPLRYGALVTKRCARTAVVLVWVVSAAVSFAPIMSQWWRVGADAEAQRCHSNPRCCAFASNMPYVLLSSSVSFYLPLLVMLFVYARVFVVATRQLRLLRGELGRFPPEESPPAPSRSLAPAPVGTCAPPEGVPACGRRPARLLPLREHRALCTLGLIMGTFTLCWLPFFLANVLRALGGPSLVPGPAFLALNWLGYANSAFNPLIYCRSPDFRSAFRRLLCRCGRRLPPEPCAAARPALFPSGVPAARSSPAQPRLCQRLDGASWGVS

Urinary bladder = test: Ex vivo relaxant activity against CCh-induced contraction in rat urinary bladder smooth muscle strips relative to control; type: functional
[15] = target: T1, Beta-2 adrenergic receptor; test: Agonist activity at human beta-2 adrenoceptor expressed in CHO cells assessed as cAMP accumulation incubated for 10 mins by radioimmunoassay; type: functional, cell-based
[16] = target: T2, Beta-1 adrenergic receptor; test: Agonist activity at human beta-1 adrenoceptor expressed in CHO cells assessed as cAMP accumulation incubated for 10 mins by radioimmunoassay; type: functional, cell-based

SMILES: Cc1nc(Nc2ncc(C(=O)Nc3c(C)cccc3Cl)s2)cc(N2CCN(CCO)CC2)n1.O [DASATINIB]
- half-life at 10 h (in vivo [1]): 3.3 h
- IC50 (WiDr): < 1 nM
- IC50 (K562): 52 nM
- bioavailability [2]: 27%
- half-life at 10 h (in vivo [3]): 3.1 h

SMILES: CN(C)CCn1nnnc1SCC1=C(C(=O)O)N2C(=O)[C@@H](NC(=O)Cc3csc(N)n3)[C@H]2SC1 [CEFOTIAM]
- MIC (Clostridioides difficile): > 128 µg/mL
- MIC (Staphylococcus aureus): 0.25 µg/mL (≈ 0.476 µM)
- MIC (Bacteroides fragilis): ≥ 16 µg/mL

SMILES: Cc1nc(NC(=O)N2CCC[C@H]2C(N)=O)sc1-c1ccnc(C(C)(C)C(F)(F)F)c1 [ALPELISIB]
- IC50 [4]: ~4 nM

SMILES: O=C(Nc1nc(-c2cc(Cl)cs2)c(N2CCN(C3CCCCC3)CC2)s1)c1cnc(N2CCC(C(=O)O)CC2)c(Cl)c1 [AVATROMBOPAG]
- EC50 [5]: 25 nM
- EC50 (BaF3): 3.3 nM

SMILES: Nc1nc(/C(=C/CC(=O)O)C(=O)N[C@@H]2C(=O)N3C(C(=O)O)=CCS[C@H]23)cs1 [CEFTIBUTEN]
- MIC (Haemophilus influenzae): 0.015 µg/mL (≈ 0.0365 µM)
- MIC (Moraxella catarrhalis): 0.5 µg/mL (≈ 1.22 µM)
- MIC (Streptococcus pneumoniae): 0.5 µg/mL (≈ 1.22 µM)

SMILES: CC(C)c1nc(CN(C)C(=O)N[C@H](C(=O)N[C@@H](Cc2ccccc2)C[C@H](O)[C@H](Cc2ccccc2)NC(=O)OCc2cncs2)C(C)C)cs1 [RITONAVIR]
- IC50 [6]: 200 nM

SMILES: C=CC1=C(C(=O)O)N2C(=O)[C@@H](NC(=O)/C(=N\OCC(=O)O)c3csc(N)n3)[C@H]2SC1 [CEFIXIME]
- MIC (Haemophilus influenzae): 0.004 µg/mL (≈ 0.00882 µM)
- MIC (Escherichia coli): 0.015 µg/mL (≈ 0.0331 µM)
- MIC (Proteus mirabilis): ≤ 0.008 µg/mL

SMILES: COCC1=C(C(=O)O)N2C(=O)[C@@H](NC(=O)/C(=N\OC)c3csc(N)n3)[C@H]2SC1 [CEFPODOXIME]
- MIC (Neisseria gonorrhoeae): 0.004 µg/mL (≈ 0.00936 µM)
- MIC (Haemophilus influenzae): ≤ 0.03 µg/mL
- MIC (Streptococcus pyogenes): ≤ 0.004 µg/mL

SMILES: CCCN[C@H]1CCc2nc(N)sc2C1 [PRAMIPEXOLE DIHYDROCHLORIDE]
- Ki (D(3) dopamine receptor): 0.5 nM

SMILES: C[C@H]1[C@H](NC(=O)/C(=N\OC(C)(C)C(=O)O)c2csc(N)n2)C(=O)N1S(=O)(=O)O [AZTREONAM]
- MIC [7]: 8 µg/mL (≈ 18.4 µM)
- MIC (Staphylococcus aureus): ≥ 8 µg/mL
- MIC (Streptococcus pyogenes): ≥ 8 µg/mL

SMILES: CO/N=C(\C(=O)N[C@@H]1C(=O)N2C(C(=O)[O-])=C(C[N+]3(C)CCCC3)CS[C@H]12)c1csc(N)n1
- MIC (Escherichia coli): ≤ 0.007 µg/mL
- MIC (Pseudomonas aeruginosa): > 0.06 µg/mL
- MIC (Streptococcus pneumoniae): 0.007 µg/mL (≈ 0.0146 µM)

SMILES: CC(C)(O/N=C(\C(=O)N[C@@H]1C(=O)N2C(C(=O)[O-])=C(C[N+]3(CCNC(=O)c4ccc(O)c(O)c4Cl)CCCC3)CS[C@H]12)c1csc(N)n1)C(=O)O [CEFIDEROCOL]
- MIC (Enterobacteriaceae): < 2 µg/mL
- MIC [8]: < 2 µg/mL
- MIC (Bacteria): < 2 µg/mL

SMILES: CC(=O)Oc1ccccc1C(=O)Nc1ncc([N+](=O)[O-])s1 [NITAZOXANIDE]
- IC50 [9]: 2400 nM

SMILES: CC(C)(C)NCC(O)CSc1nc(-c2ccc(C(N)=O)s2)cs1 (centres undefined) [AROTINOLOL]
- Ki [10]: 0.55 nM
- Ki [11]: 0.182 nM

SMILES: C=CC1=C(C(=O)O)N2C(=O)[C@@H](NC(=O)/C(=N\O)c3csc(N)n3)[C@H]2SC1
- MIC (Haemophilus influenzae): 0.05 µg/mL (≈ 0.126 µM)
- MIC (Streptococcus pyogenes): ≤ 0.004 µg/mL
- MIC (Streptococcus pneumoniae): 0.006 µg/mL (≈ 0.0152 µM)

SMILES: COc1cc(O)c(C(=O)Nc2nc(C(=O)NCCN(C(C)C)C(C)C)cs2)cc1OC
- IC50 (Acetylcholinesterase): 1790 nM

SMILES: COc1ccc2c(O[C@@H]3C[C@H]4C(=O)N[C@]5(C(=O)NS(=O)(=O)C6CC6)C[C@H]5/C=C\CCCCN(C)C(=O)[C@@H]4C3)cc(-c3nc(C(C)C)cs3)nc2c1C
- half-life [12]: 1.5 h
- half-life [13]: 4.1 h

SMILES: Nc1nc(CC(=O)Nc2ccc(CCNC[C@H](O)c3ccccc3)cc2)cs1 [MIRABEGRON]
- EC50 [14]: 22.4 nM
- Emax (Urinary bladder): 94%
- EC50 [15]: ≥ 10000 nM
- EC50 [16]: ≥ 10000 nM
